Measurements: the OligoGym collection
These antisense oligonucleotides have a phosphorothioate backbone; sugars and methylation of C are not fully specified.

Columns and labels:
Conditions in all cases: ASO
[1] = target: AKT1
[2] = target: GNAI1
[3] = target: ETS2
[4] = target: MAP2K7
Further: test concentration or dose not given here.

## AAAATACTAAAGTTGAAT
[1]
  remaining target (mRNA or protein) (fraction of control): 0.75

## AAACTAAAGTCATAAATA
[2]
  remaining target (mRNA or protein) (fraction of control): ≥ 1

## AAAGTTGAATGTTGTAAA
[1]
  remaining target (mRNA or protein) (fraction of control): 0.9

## AACCAGGTCGTAGTCACT
[2]
  remaining target (mRNA or protein) (fraction of control): 0.45

## AACCCGTTGCACATCCAG
[3]
  remaining target (mRNA or protein) (fraction of control): ≥ 1

## AAGTGCTACCGTGGAGAG
[1]
  remaining target (mRNA or protein) (fraction of control): 0.43

## AATAGTCTGTGTGTGTCC
[3]
  remaining target (mRNA or protein) (fraction of control): ≥ 1

## AATCCTAAGTTGCCACTC
[2]
  remaining target (mRNA or protein) (fraction of control): 0.4

## ACAGCGTGGCTTCTCTCA
[1]
  remaining target (mRNA or protein) (fraction of control): 0.88

## ACGTTCTTCTCCGAGTGC
[1]
  remaining target (mRNA or protein) (fraction of control): 0.7

## ACTCAGGTCTTCGCCATGAC
[4]
  remaining target (mRNA or protein) (fraction of control): 0.76

## ACTGCTTTGTATTGTTTA
[2]
  remaining target (mRNA or protein) (fraction of control): 0.94

## ACTGTCCTGTTGCCAGCTCC
[4]
  remaining target (mRNA or protein) (fraction of control): 0.58

## AGAACAACTTTGGTCAAG
[2]
  remaining target (mRNA or protein) (fraction of control): 0.88

## AGACAAACACCTCGTGCCGA
[4]
  remaining target (mRNA or protein) (fraction of control): 0.88

## AGAGCTTGATCTGGCCCCGC
[4]
  remaining target (mRNA or protein) (fraction of control): 0.84

## AGCCAATGAAGGTGCCAT
[1]
  remaining target (mRNA or protein) (fraction of control): 0.33

## AGCCCTAATGATAGCAAT
[2]
  remaining target (mRNA or protein) (fraction of control): 0.33

## AGCTGTCCGCACCGTTCT
[3]
  remaining target (mRNA or protein) (fraction of control): ≥ 1

## AGGACGCCGCCATCTTCCCC
[4]
  remaining target (mRNA or protein) (fraction of control): 0.7

## AGGAGCGGGAGGAGGAGG
[3]
  remaining target (mRNA or protein) (fraction of control): 0.87

## AGGCGGCACAGCCGGCGCTC
[4]
  remaining target (mRNA or protein) (fraction of control): 0.95

## AGTCCGCGGTGACTCAGGTC
[4]
  remaining target (mRNA or protein) (fraction of control): 0.87

## AGTCTATCTTCAACCTCC
[2]
  remaining target (mRNA or protein) (fraction of control): 0.92

## AGTCTGGATGGCGGTTGT
[1]
  remaining target (mRNA or protein) (fraction of control): 0.51

## ATAAAGCCTTCTTCAGCA
[2]
  remaining target (mRNA or protein) (fraction of control): 0.78

## ATCCGTCTCCAGTCCAGC
[3]
  remaining target (mRNA or protein) (fraction of control): 0.8

## ATGGCGATGAAGACGTCCGT
[4]
  remaining target (mRNA or protein) (fraction of control): 0.84

## ATTCAAATAGTATGCTGC
[2]
  remaining target (mRNA or protein) (fraction of control): ≥ 1

## ATTTCCTTTGTGTCCTTT
[2]
  remaining target (mRNA or protein) (fraction of control): 0.41

## ATTTGAACAACATAATAC
[1]
  remaining target (mRNA or protein) (fraction of control): 0.89

## CAAAGCCATCACCCTAAA
[2]
  remaining target (mRNA or protein) (fraction of control): 0.43

## CAACCCTCCTTCACAATA
[1]
  remaining target (mRNA or protein) (fraction of control): 0.76

## CAAGTCATTCAAATAGTA
[2]
  remaining target (mRNA or protein) (fraction of control): ≥ 1

## CAAGTTGCTGCCTGGGAA
[3]
  remaining target (mRNA or protein) (fraction of control): 0.39

## CAATTCCTGTAGTTTTCA
[2]
  remaining target (mRNA or protein) (fraction of control): 0.8

## CACAGAGAAGTTGTTGAG
[1]
  remaining target (mRNA or protein) (fraction of control): 0.78

## CACAGTTGGCGGAGTCAT
[3]
  remaining target (mRNA or protein) (fraction of control): 0.45

## CACATTCTTAGTATCTGT
[2]
  remaining target (mRNA or protein) (fraction of control): 0.85

## CACCTCCAGCGTCTCGTAGC
[4]
  remaining target (mRNA or protein) (fraction of control): 0.45

## CAGCTCCAGGAGAAACTG
[3]
  remaining target (mRNA or protein) (fraction of control): ≥ 1

## CAGGGAGGACGCCGCCATCT
[4]
  remaining target (mRNA or protein) (fraction of control): ≥ 1

## CAGGGAGTCAGGGAGGGC
[1]
  remaining target (mRNA or protein) (fraction of control): 0.87

## CATAATACACAATAACAA
[1]
  remaining target (mRNA or protein) (fraction of control): 0.61

## CATCTTCCCCGCCGCCACCG
[4]
  remaining target (mRNA or protein) (fraction of control): 0.68

## CATGAACATAAATAAAGC
[2]
  remaining target (mRNA or protein) (fraction of control): ≥ 1

## CATGGTTGTTTCCTTCCC
[3]
  remaining target (mRNA or protein) (fraction of control): ≥ 1

## CATTCATGCCGAACCTCT
[3]
  remaining target (mRNA or protein) (fraction of control): ≥ 1

## CCACTATCTTTCCACAAT
[2]
  remaining target (mRNA or protein) (fraction of control): 0.84

## CCAGAGACGATCAGGGAG
[3]
  remaining target (mRNA or protein) (fraction of control): ≥ 1

## CCCAGAGAGATGACAGAT
[1]
  remaining target (mRNA or protein) (fraction of control): 0.54

## CCCAGGCTCCATACGTCGGC
[4]
  remaining target (mRNA or protein) (fraction of control): 0.74

## CCCCGAGAAGCCCATGTGTC
[4]
  remaining target (mRNA or protein) (fraction of control): 0.69

## CCCTGTGCCCTGTCCCAG
[1]
  remaining target (mRNA or protein) (fraction of control): 0.45

## CCGAAAGTGCCCTTGCCC
[1]
  remaining target (mRNA or protein) (fraction of control): 0.44

## CCGACGTCTTGTGGATGA
[3]
  remaining target (mRNA or protein) (fraction of control): 0.45

## CCGCCATCTTCCCCGCCGCC
[4]
  remaining target (mRNA or protein) (fraction of control): 0.9

## CCGGGCTGAGTCACCAAA
[2]
  remaining target (mRNA or protein) (fraction of control): 0.31

## CCTAAGCCCCTGGTGACA
[1]
  remaining target (mRNA or protein) (fraction of control): 0.85

## CCTGAGTTGTCACTGGGT
[1]
  remaining target (mRNA or protein) (fraction of control): 0.51

## CCTTCTGTTACTTTCAGT
[2]
  remaining target (mRNA or protein) (fraction of control): 0.75

## CGAAAAGGTCAAGTGCTA
[1]
  remaining target (mRNA or protein) (fraction of control): 0.59

## CGCCGCCATCTTCCCCGCCG
[4]
  remaining target (mRNA or protein) (fraction of control): 0.99

## CGGCGCTTGGTCGGGACG
[3]
  remaining target (mRNA or protein) (fraction of control): ≥ 1

## CGGTCCTCGGAGAACACA
[1]
  remaining target (mRNA or protein) (fraction of control): ≥ 1

## CGTCCCACGGACTGCCAG
[3]
  remaining target (mRNA or protein) (fraction of control): ≥ 1

## CTCCTCTTCTGAATAACC
[2]
  remaining target (mRNA or protein) (fraction of control): 0.79

## CTCGCTGTCCACACACTC
[1]
  remaining target (mRNA or protein) (fraction of control): 0.39

## CTGCCTTTCCTGGGTCCT
[3]
  remaining target (mRNA or protein) (fraction of control): ≥ 1
